From patent US11787792B2, “5-[[4-[[morpholin-2-yl]methylamino]-5-(trifluoromethyl)-2 Pyridyl]Amino]Pyrazine-2-carbonitrile and therapeutic uses thereof” (priority 2012, dated 2023)

Columns and labels:
Assay type in all cases: cell-based
HT29 cells [1] = test: Cellular potency in Mitosis Inhibition Assay (MIA), checkpoint abrogation after etoposide; settings: for IC50: Homo sapiens, HT-29, HT29 cells, etoposide pre-treatment, nocodazole, read-out: CHK1 Cellular Potency MIA IC50; for (fold better) Compound 1, CHK1 cellular potency MIA: fold by which Compound 1 is more potent than the compound; for (fold better) Compound 2, CHK1 cellular potency MIA: fold by which Compound 2 is more potent than the compound
Description: Assay 2: Cellular Potency in Mitosis Inhibition Assay (MIA)
Checkpoint abrogation by CHK1 kinase function inhibitors in combination with genotoxic agents was assessed using a europium based ELISA assay designed to quantify the number of cells trapped in mitosis after treatment with a genotoxic agent (to induce G2 arrest) followed by a CHK1 inhibitor test compound in combination with nocodazole to abrogate this arrest. HT29 cells were seeded at 10^4 cells per well into 96-well plates in a volume of 160 μL and left to attach for 36 hours. […] After genotoxic drug exposure, the medium was removed and replaced with fresh medium (160 μL). […] CHK1 inhibitor test compounds were added in 40 μL aliquots using quadruplicate wells for each concentration. After 21 hours exposure, the medium was removed and cells were fixed in 4% formaldehyde in phosphate buffered saline (PBS, pH 7.4, pre-cooled to 4° C.) for 30 minutes at 4° C., followed by 100% methanol (pre-cooled to −20° C.) for 10 minutes at ambient temperature. Wells were washed with PBS and blocked with 5% dried milk (Marvel) in Tris-buffered saline (TBS, pH 7.4) at 37° C. for 30 minutes. Each well was washed three times with water containing 0.1% Tween 20. […] Primary antibody was removed and wells were washed with water containing 0.1% Tween 20.
Europium emissions were counted on a Wallac, Victor2 counter (Perkin-Elmer, Bucks UK).

HT29 cells [2] = test: Selectivity in cells for CHK1-dependent checkpoint abrogation versus cytotoxicity (Activity Index = SRB IC50/MIA IC50); settings: for (fold better) Compound 1, cellular selectivity: fold by which Compound 1 is more selective than the row's compound; for (fold better) Compound 2, cellular selectivity: fold by which Compound 2 is more selective than the row's compound
Description: Assay 3: Assessment of Selectivity in Cells for CHK1-Dependent Checkpoint Abrogation Versus Cytotoxicity
Compound cytotoxicity was assessed using a 96 hour sulforhodamine B assay (SRB, Sigma catalog number S9012). HT29 or SW620 cells were seeded at 1.6 to 3.2×10^3 cells per well in 96-well plates in a volume of 160 μL medium and allowed to attach for 36 hours prior to treatment. […] Cells were incubated for 96 hours (four doublings) at 37° C. in a humidified 5% CO2 environment and then fixed and stained with SRB.
The Activity Index (AI), a measure of the selectivity of the CHK1 inhibitor test compounds for effecting CHK1-dependent checkpoint abrogation versus cytotoxicity was calculated from the ratio of the CHK1 inhibitor cytotoxicity IC50 versus the MIA IC50 (i.e., AI=CHK1 inhibitor SRB IC50/MIA IC50), both measured in HT29 cells.

HT29 cells [3] = test: Cellular efficacy in combination with SN38 (SRB potentiation assay); settings: SRB IC50/Potentiation IC50, HT29 cells, SN38 at its IC50, 96 hours
Description: Assay 4: Cellular Efficacy in HT29 or SW620 Colon Carcinoma Cells in Combination with SN38 or Gemcitabine
HT29 or SW620 cells were seeded at 1.6 to 3.2×10^3 cells per well in 96-well plates in a volume of 160 μL medium and allowed to attach for 36 hours prior to treatment.
The Potentiation Index (PI) was calculated as a measure of the ability of the CHK1 inhibitor to enhance SN38 or gemcitabine cytotoxicity and was defined as the ratio of the Cytotoxicity IC50 of the CHK1 inhibitor alone versus the Potentiation IC50 of the CHK1 inhibitor combined with the genotoxic (i.e., PI=CHK1 inhibitor SRB IC50/Potentiation IC50).

| SMILES | IC50 (HT29 cells [1]) [nM] | (fold better) Compound 1, cellular selectivity (HT29 cells [2]) [fold] | (fold better) Compound 2, cellular selectivity (HT29 cells [2]) [fold] | (fold better) Compound 1, CHK1 cellular potency MIA (HT29 cells [1]) [fold] | (fold better) Compound 2, CHK1 cellular potency MIA (HT29 cells [1]) [fold] | Cell Efficacy + SN38 in HT29 cells (Potentiation Index) (HT29 cells [3]) [fold] |
| --- | --- | --- | --- | --- | --- | --- |
| N#Cc1cnc(Nc2cc(NC[C@H]3CNCCO3)c(C(F)(F)F)cn2)cn1 [Compound 1, 5-[[4-[[(2R)-Morpholin-2-yl]methylamino]-5-(trifluoromethyl)-2-pyridyl]amino]pyrazine-2-carbonitrile] | 30 |  |  |  |  |  |
| N#Cc1cnc(Nc2cc(NC[C@@H]3CNCCO3)c(C(F)(F)F)cn2)cn1 [Compound 2, 5-[[4-[[(2S)-Morpholin-2-yl]methylamino]-5-(trifluoromethyl)-2-pyridyl]amino]pyrazine-2-carbonitrile] | 18 |  |  |  |  |  |
| N#Cc1cnc(Nc2cc(NCC3CNCCO3)c(C(=O)Nc3ccccc3)cn2)cn1 (stereo not shown) [Compound Y-102] | 800 | ~5.6 | ~33 | ~27 | ~44 |  |
| COCc1ccc(-c2cnc(Nc3cnc(C#N)cn3)cc2NC[C@@H]2CNCCO2)cc1 [Compound Y-148] | 900 | ~5.9 | ~34 | ~30 | ~50 |  |
| COCCOc1ccc(-c2cnc(Nc3cnc(C#N)cn3)cc2NC[C@@H]2CNCCO2)cc1 [Compound Y-149] | 1100 | ~7.4 | ~43 | ~34 | ~61 |  |
| COCC#Cc1cnc(Nc2cnc(C#N)cn2)cc1NC[C@@H]1CNCCO1 [Compound Y-154] | 90 |  |  |  |  |  |
| COC(C)(C)C#Cc1cnc(Nc2cnc(C#N)cn2)cc1NC[C@@H]1CNCCO1 [Compound Y-155] | 120 | ~2.4 | ~13 | ~4 | ~7 | 0.9 |
| COCc1ccc(-c2cnc(Nc3cnc(C#N)cn3)cc2NC[C@H]2CNCCO2)cc1 [Compound Y-156] | 560 | ~4.8 | ~28 | ~19 | ~31 | 1.6 |
| COCCOc1ccc(-c2cnc(Nc3cnc(C#N)cn3)cc2NC[C@H]2CNCCO2)cc1 [Compound Y-157] | 600 | ~4.1 | ~24 | ~20 | ~33 | 2 |
| COCCCc1cnc(Nc2cnc(C#N)cn2)cc1NC[C@H]1CNCCO1 [Compound Y-159] | 700 |  |  |  |  |  |
